The subject of series [1] is locust brain barrier. The experiment in a line: Visual inspection of Evans Blue permeation through the locust brain barrier. The class given is in vitro ADME, Locusta migratoria. Particulars: 5 minutes in Evans Blue; neural lamella removed. The procedure: A cut was made through the frontal part of the head of the adult locusta migratoria. Each brain was placed for 5 minutes in a microtiter well containing a mixture of Evans Blue. The neural lamella was removed from the brain.

The test system of series [2] is Blattodea BBB. To be noted: for average concentration in brain supernatant measured by LCMS: Blattodea.
Procedure: A cut was made through the frontal part of the head of the Blattodea. Each brain was placed for 5 minutes in a microtiter well with an approximately 1.0 mg/ml solution of trazodone. To stain the neural lamella Evans Blue was added and the neural lamella was removed. Two brains are placed in each test tube and 50 ul distilled H2O and 100 ul ACN is added. The tubes were placed in a sonicator and the brains were disintegrated by approximately 5 seconds of sonication.
In series [3] the test system is grasshopper BBB (locusta migratoria brain in its cuticle shell). On the procedure:
1. […] The insects may be obtained from local suppliers or bred in house. The grasshoppers were reared under crowded conditions at 28° C. and a 12:12 dark:light photocycle and fed fresh grass and bran. Before experiments the grasshoppers were fed ecologically cultivated wheat for two weeks. Animals used are adult males (in some experiments females) between two to four weeks after adult emergence. A cut is made through the frontal part of the locust head comprising the most frontal parts including the antennae, the compound eyes, the brain and all neural connections between the brain and the antennae and the eyes. This preparation in its cuticle shell is placed in a well of a microtitre plate containing the test solution. After various times of exposure the preparation is washed in saline and the brain is dissected under microscope with fine forceps. The neural lamella surrounding the brain is removed in saline and the brain is then […] in saline, centrifuged and the supernatant frozen until analyses. Drug concentration is analysed by HPLC, LC/MSMS or other methods.
A cut was made through the frontal part of the head of adult female locusta migratoria. Each brain in its cuticle shell was placed in a 0.12 mg/ml mianserin solution for 5 minutes. The brain was prepared in saline and removed from the cuticle shell and three brains were placed in each test tube containing 100 ul distilled H2O. 200 ul ACN was added to each tube and the tubes were placed in a sonicator and the brains were disintegrated by approximately 5 seconds of sonication. The samples containing the disintegrated brains were centrifuged for 5 minutes (10000 g at 4° C.).
A cut was made through the frontal part of the head of adult female locusta migratoria. Each brain in its cuticle shell was placed in a 0.12 mg/ml mianserin solution for 5 minutes. The brain was prepared in saline and removed from the cuticle shell. The brains were washed in Saline. After wash three brains were placed in each test tube containing 100 ul distilled H2O. 200 ul ACN was added to each tube and the tubes were placed in a sonicator and the brains were disintegrated by approximately 5 seconds of sonication.
A cut was made through the frontal part of the head of adult female locusta migratoria. Each brain in its cuticle shell was placed in a 0.12 mg/ml mianserin solution for 5 minutes. The brain was prepared in saline and removed from the cuticle shell. To stain the neural lamella Evans Blue was added and the neural lamella was removed. Three brains were placed in each test tube containing 100 ul distilled H2O. 200 ul ACN was added to each tube and the tubes were placed in a sonicator and the brains were disintegrated by approximately 5 seconds of sonication.
A cut was made through the frontal part of the head of the adult locusta migratoria. Each brain in its cuticle shell was placed in a 0.9 mg/ml mianserin solution for 5 minutes. The brain was prepared in saline and removed from the cuticle shell. Three brains were placed in a test tube containing 100 ul PBS. 200 ul ACN was added to each tube. The tubes were placed in a sonicator and the brains were disintegrated by approximately 5 seconds of sonication.
A cut was made through the frontal part of the head of the adult locusta migratoria. Each brain was placed for 5 minutes in a microtiter well with an approximately 0.95 mg/ml solution of mianserin. To stain the neural lamella Evans Blue was added and the neural lamella was removed. Two brains are placed in each test tube and 100 ul distilled H2O and 200 ul ACN is added. The tubes were placed in a sonicator and the brains were disintegrated by approximately 5 seconds of sonication.
A cut was made through the frontal part of the head of the adult locusta migratoria. […] To stain the neural lamella Evans Blue was added and the neural lamella was removed.

[4] abbreviates: Locusta migratoria, 5 min, 0.9 mg/ml.

Like-named read-outs stand apart in the source and are kept apart here.

In the case of `Cc1cc(-c2ccc(/N=N/c3ccc4c(S(=O)(=O)O)cc(S(=O)(=O)O)c(N)c4c3O)c(C)c2)ccc1/N=N/c1ccc2c(S(=O)(=O)O)cc(S(=O)(=O)O)c(N)c2c1O` [Evans Blue], the “permeation through the locust brain barrier (visual signs in brain)” value in series [1] is given as “no significant permeation”.

Regarding `Cn1c(=O)c2c(ncn2C)n(C)c1=O` [caffeine], the “average concentration in brain supernatant measured by LCMS” value (from here on “average concentration”) was 152 ng/mL in series [2] (approximately 0.1 mg/ml solution, 5 minutes, neural lamella removed, two brains per tube); 1028 ng/mL in series [2] (approximately 1.0 mg/ml solution, 5 minutes, neural lamella removed, two brains per tube); 1533 ng/mL in series [3] (approximately 0.78 mg/ml solution, 5 minutes, neural lamella removed, two brains per tube). Besides, in series [2] (conclusion from Examples AB-AG), the “permeation of the Blattodea BBB (in words)” value is on record as “permeate the Blattodea BBB to a much larger extent than atenolol”. Besides, in series [3] (conclusion from the examples), the “permeation of the grasshopper BBB (in words)” value was “permeate the grasshopper BBB to a much larger extent than peripheral acting drugs”.

In the case of `CN1CCN2c3ccccc3Cc3ccccc3C2C1` (stereo not shown) [mianserin], the “[with lamella]/[without lamella] ratio” value in series [3] (Locusta migratoria, 5 min, 0.1 mg/ml) turned out to be 1.7; in series [3] (setting [4]) it was 2.3. For the same compound, in series [3] (Locusta migratoria, 5 min, 0.95 mg/ml), the “average concentration” value turned out to be 1439 ng/mL.

On to `CC(C)NCC(O)COc1cccc2ccccc12` (stereo not shown) [propranolol], for which, in series [3], the “permeation of the grasshopper BBB (in words)” value is given as “permeate the grasshopper BBB to a much larger extent than peripheral acting drugs”. The “average concentration” value in series [3] (Locusta migratoria, 5 min, 0.72 mg/ml) is 674 ng/mL.

On to `O=c1n(CCCN2CCN(c3cccc(Cl)c3)CC2)nc2ccccn12` [trazodone], for which the “permeation of the Blattodea BBB (in words)” value in series [2] is listed as “permeate the Blattodea BBB to a much larger extent than atenolol”. The “average concentration” value was found to be 127 ng/mL in series [2] (5 min, 0.1 mg/ml); 768 ng/mL in series [2] (5 min, 1 mg/ml); 1317 ng/mL in series [3] (setting [4]). Further, the “permeation of the grasshopper BBB (in words)” value in series [3] is “permeate the grasshopper BBB to a much larger extent than peripheral acting drugs”.

Source of the values: patent publication US9097706B2, “Insect-based ex vivo model for testing blood-brain barrier penetration and method for exposing insect brain to chemical compounds” (ENTOMOPHARM APS, priority 2009, dated 2015).
